Data taken from PMC10669433 (Antibiotics, 2023).
“Also recorded” adds a separate entry of the source.

Experiments:
[1] = test system: cardiovascular prosthetic infections (PVE, CEDI, PVGI); assay: Clinical cure in patients with cardiovascular prosthetic infections treated with dalbavancin as sequential therapy (retrospective case series); type: in vivo, human
Procedure: Data were collected from May 2019 to May 2023 at the Modena University Hospital, a tertiary care hospital in Northern Italy. Cardiovascular infections included PVE, CEDI, and PVGI.
(§1) Clinical evaluation was carried out at the end of treatment (EOT) and at the end of a six-month follow-up. Primary outcome was clinical cure, defined as resolution of all clinical signs and symptoms of infection, with or without radiological improvement. […] Finally, for primary outcome, a comparison between patients treated with standard (the 1500 mg infusion regimen at day 1 and day 8, with subsequent 1000 mg administrations every 2 weeks) vs. TDM-guided approach was performed.

[2] = test system: cardiovascular prosthetic infections (PVE, CEDI, PVGI); assay: Microbiological cure / relapse (blood cultures) in the case series; type: in vivo, human
Procedure: as §1

[3] = Adverse events in the case series; type: in vivo, human
[4] = test system: cardiovascular prosthetic infections (PVE, CEDI, PVGI); assay: 18F-FDG PET/TC radiological improvement; type: in vivo, human; conditions: 18F-FDG PET/TC available for nine patients; 6/9
Description: For diagnosis, all patients underwent clinical, microbiological, and echocardiographic evaluation (transthoracic echocardiography and transesophageal echocardiography [TEE]). Major echocardiographic criteria included vegetation, abscess, pseudoaneurysm, intracardiac fistula, valvular perforation or aneurysm, and new partial dehiscence of prosthetic valve. In addition, according to clinical indication, computed tomography (CT) angiography or cardiac one and/or 18F-fluorodeoxyglucose (FDG)-positron emission tomography (PET) PET were also performed.
Data collection included demographic information, Charlson Comorbidity Index (CCI), type and site of infection, microbiological isolation, prior antibiotic treatment, surgical procedure (performed or not, complete or partial), laboratory variables, and when available, radiological improvement (fluorodeoxyglucose positron emission tomography (FDG-PET) alone or in combination with computed tomographic angiography (CTA) to assess optimal duration of antibiotic treatment at follow-up).

[5] = cited from earlier work
Description: It is associated with good tissue penetration, including staphylococcal biofilms, making this antibiotic a promising agent to treat biofilm-mediated infections.

[6] = test system: vancomycin-resistant S. aureus (VRSA); conditions: cited from earlier work
Description: (§2) Dalbavancin is a long-acting parenteral lipoglycopeptide, a semisynthetic derivative of teicoplanin. It is characterized by a large spectrum of action against Gram-positive bacteria, such as Staphylococcus aureus (including methicillin-resistant S. aureus, but also strains with intermediate sensitivity to vancomycin), Streptococcus agalactiae, Streptococcus pyogenes, Streptococcus anginosus, vancomycin-sensitive Enterococcus faecium, and Enterococcus faecalis; it is poorly active against vancomycin-resistant S. aureus (VRSA), and it is not active against vancomycin-resistant enterococci with t ...

[7] = test system: vancomycin-resistant enterococci with the Van A phenotype; conditions: cited from earlier work
Description: as §2

infective endocarditis [8] = conditions: review, sequential dalbavancin in infective endocarditis, 170 patients; cited from earlier work
infective endocarditis [9] = test system: infective endocarditis; parameters: method as in PMID 37442488, PMID 30389305; conditions: 124 subjects with infective endocarditis; cited from earlier work
S. aureus = conditions: dalbavancin group vs 22% in the SOC group, p = 0.484; cited from earlier work
Description: Unfortunately, all patients received dalbavancin as sequential therapy, with a medi ...

Question: For CN[C@H]1C(=O)N[C@@H]2Cc3ccc(cc3)Oc3cc4cc(c3O[C@@H]3O[C@H](C(=O)O)[C@@H](O)[C@H](O)[C@H]3NC(=O)CCCCCCCCC(C)C)Oc3ccc(cc3Cl)[C@@H](O)[C@@H]3NC(=O)[C@H](NC(=O)[C@@H]4NC(=O)[C@@H](NC2=O)c2cc(cc(O)c2Cl)Oc2cc1ccc2O)c1ccc(O)c(c1)-c1c(O[C@H]2O[C@H](CO)[C@@H](O)[C@H](O)[C@@H]2O)cc(O)cc1[C@@H](C(=O)NCCCN(C)C)NC3=O [dalbavancin], which “Clinical cure according to causative pathogen: E. faecalis” value ([1]; 1/1 patient) is on record?
Answer: 100%

Question: What about the “Clinical cure according to causative pathogen: G. morbillorum” value ([1]; 1/1 patient) of the same molecule?
Answer: 100%

Question: What about the “Clinical cure according to causative pathogen: CoNS” value ([1]; 2/2 patients) of the same molecule?
Answer: 100%

Question: What about the “Clinical cure according to causative pathogen: viridans Streptococcus” value ([1]; 3/3 patients) of the same molecule?
Answer: 100%

Question: And the “Clinical cure according to causative pathogen: S. aureus” value ([1]; 3/5 patients)?
Answer: 60%

Question: And the “Clinical success in patients treated without TDM” value ([1]; 3/5 patients)?
Answer: 60%

Question: What about the “Clinical cure, suppressive antibiotic therapy without complete source control” value ([1]; 6/9 patients) of the same molecule?
Answer: 66.6%

Question: What about the “Clinical cure at the EOT, cardiac implantable electronic devices infections (n = 3), %” value ([1]; CEDI, end of treatment) of the same molecule?
Answer: (66.6) %

Question: What about the “Clinical cure at the EOT, cardiac implantable electronic devices infections (n = 3), patients/evaluable” value ([1]; CEDI, end of treatment) of the same molecule?
Answer: 2/3

Question: What about the “Clinical cure at the EOT, prosthetic valve endocarditis (n = 8), %” value ([1]; PVE, end of treatment) of the same molecule?
Answer: (75) %

Question: What about the “Clinical cure at the EOT, prosthetic valve endocarditis (n = 8), patients/evaluable” value ([1]; PVE, end of treatment) of the same molecule?
Answer: 6/8

Question: What about the “Clinical cure at the EOT, prosthetic vascular grafts infections (n = 6), %” value ([1]; PVGI, end of treatment) of the same molecule?
Answer: (83.3) %

Question: And the “Clinical cure at the EOT, prosthetic vascular grafts infections (n = 6), patients/evaluable” value ([1]; PVGI, end of treatment)?
Answer: 5/6

Question: What about the “Clinical cure at the EOT (n = 13), %” value ([1]; end of treatment, 10/13 patients) of the same molecule?
Answer: (76.9) %

Question: And the “Clinical cure at the EOT (n = 13), patients cured/evaluable” value ([1]; end of treatment, dalbavancin 1500 mg day 1 and day 8, then further doses (fixed or TDM-guided), after first-line antibiotics)?
Answer: 10/13

Question: What about the “Clinical cure, patients who underwent the complete source control intervention” value ([1]; implant removal, 4/4 patients) of the same molecule?
Answer: 100%

Question: What about the “Clinical cure in TDM-guided group (n = 8), patients cured/evaluable” value ([1]; patients with TDM-guided redosing) of the same molecule?
Answer: 7/8

Question: And the “Clinical Success End of Treatment” value ([1]; single patients)?
Answer: Yes (7 w); also recorded: Yes (25 w); also recorded: Yes (18 w); also recorded: Yes (29 w); also recorded: Yes (14 w); also recorded: Yes (47 w); also recorded: Yes (9 w); also recorded: No (16 w); also recorded: Yes (10 w); also recorded: Yes (20 w); also recorded: No (53 w); also recorded: No (12 w)

Question: What about the “Clinical Success Six Months Follow-Up” value ([1]; single patients, one table row per patient) of the same molecule?
Answer: Yes and No

Question: And the “Clinical cure at six months of follow-up (n = 12), %” value ([1]; six-month follow-up)?
Answer: (75) %

Question: And the “Clinical cure at six months of follow-up (n = 12), patients cured/evaluable” value ([1]; six-month follow-up)?
Answer: 9/12

Question: And the “Microbiological relapse after treatment interruption (n = 13), patients/evaluable” value ([2]; after dalbavancin interruption)?
Answer: 1/13

Question: What about the “Microbiological cure at the EOT (n = 13), patients/evaluable” value ([2]; end of treatment, sustained negativity of blood cultures) of the same molecule?
Answer: 10/13

Question: What about the Tolerability ([3]; 14 patients, long-term therapy) of the same molecule?
Answer: well tolerated

Question: And the “Adverse effect reactions: impaired renal function, %” value ([3]; of N = 14 patients)?
Answer: (7.1) %

Question: And the “Adverse effect reactions: rash, %” value ([3]; of N = 14 patients)?
Answer: (7.1) %

Question: What about the “Radiological improvement with a marked SUV reduction” value [4] of the same molecule?
Answer: 66.6%

Question: And the elimination half-life [5]?
Answer: 14 days

Question: And the total protein binding [5]?
Answer: 93%

Question: And the clearance route ([5]; no active metabolites)?
Answer: predominantly renal

Question: What about the “activity against vancomycin-resistant S. aureus (VRSA)” value [6] of the same molecule?
Answer: poorly active

Question: What about the “activity against vancomycin-resistant enterococci with the Van A phenotype” value [7] of the same molecule?
Answer: not active

Question: What about the overall clinical efficacy (infective endocarditis [8]) of the same molecule?
Answer: around 90%

Question: And the “clinical success rate at 12 months of follow-up” value (infective endocarditis [9])?
Answer: 95.2%

Question: And the “treatment-related readmission rates within 30 days” value (S. aureus)?
Answer: 15%
